In assay [1] the target is T1, mineralocorticoid receptor (MR) (Homo sapiens, UniProt P08235).
T1 sequence (P08235 1-984): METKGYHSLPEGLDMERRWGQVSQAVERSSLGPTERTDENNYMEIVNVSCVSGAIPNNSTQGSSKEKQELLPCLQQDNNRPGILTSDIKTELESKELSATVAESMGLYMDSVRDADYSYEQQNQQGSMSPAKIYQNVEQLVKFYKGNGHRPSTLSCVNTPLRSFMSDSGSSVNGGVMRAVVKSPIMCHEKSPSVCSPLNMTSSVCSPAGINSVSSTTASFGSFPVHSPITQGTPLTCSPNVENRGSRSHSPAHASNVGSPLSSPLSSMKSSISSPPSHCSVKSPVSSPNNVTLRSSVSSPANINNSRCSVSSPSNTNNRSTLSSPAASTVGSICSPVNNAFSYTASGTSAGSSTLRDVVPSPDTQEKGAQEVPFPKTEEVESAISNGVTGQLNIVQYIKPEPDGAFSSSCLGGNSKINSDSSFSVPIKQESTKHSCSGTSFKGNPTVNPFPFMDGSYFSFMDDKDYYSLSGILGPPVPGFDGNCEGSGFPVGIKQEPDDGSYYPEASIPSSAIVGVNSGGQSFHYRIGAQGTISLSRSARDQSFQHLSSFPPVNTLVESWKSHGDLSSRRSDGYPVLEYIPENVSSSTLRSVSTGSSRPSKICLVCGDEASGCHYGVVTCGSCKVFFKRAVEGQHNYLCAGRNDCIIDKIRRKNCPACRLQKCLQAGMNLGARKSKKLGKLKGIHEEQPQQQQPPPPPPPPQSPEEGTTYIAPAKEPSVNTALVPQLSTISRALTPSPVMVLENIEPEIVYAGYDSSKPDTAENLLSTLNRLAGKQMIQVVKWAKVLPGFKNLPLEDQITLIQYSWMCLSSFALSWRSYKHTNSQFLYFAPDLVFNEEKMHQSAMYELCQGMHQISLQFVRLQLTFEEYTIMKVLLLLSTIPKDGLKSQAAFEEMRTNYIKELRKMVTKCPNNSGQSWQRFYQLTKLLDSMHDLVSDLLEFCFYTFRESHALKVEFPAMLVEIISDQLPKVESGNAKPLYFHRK
Description: MR agonist assay, MR-luciferase reporter cells. The assay is classed as cell-based. Particulars: 24 h incubation; 'in contrast' = unlike LEO 134310, which gave no significant activation. As for the experimental part: Assays were performed at Indigo Biosciences according to standard protocols. In brief, MR-luciferase reporter cells were incubated with medium containing charcoal-stripped fetal bovine serum and incubated with test and reference compounds for 24 h before measuring luminescence. Data were fitted by the means of four parameter logistic regression.
(In general: Reporter assays use an easily measured gene product as a stand-in for the process of interest.)

Assay [2] relates to LPS-induced TNF-alpha release in PBMCs. Briefly: TNF-alpha inhibition assay, human PBMCs. The format is cell-based. Particulars: for EC50: geometric mean; for Potency compared to LEO 134310, TNF-alpha release: human PBMC assay. As for the experimental part: PMBCs were isolated from human buffy coats or animal whole blood (EDTA-treated). Buffy coats from anonymized healthy adult blood donors were obtained from the Blood Bank of the National University Hospital Copenhagen in accordance with national legislation. Whole blood from mice (obtained from Charles River) was sampled at the animal facility at LEO Pharma and whole blood from pigs was sourced from ScanTox. Test compounds and PBMCs were incubated with 1 µg/ml LPS (Sigma) overnight at 37 °C in HEPES and Glutamax-containing RPMI medium supplemented with either 0.5% human serum albumin (human PBMCs) or 10% fetal bovine serum (mouse and pig PBMCs) and penicillin/streptomycin. TNF-alpha was measured using AlphaLISA (Perkin Elmer).
IC50 of test compounds was determined by 10-point titrations in duplicates. IC50 values and other parameters were calculated by sigmoidal curve fitting in Assay Explorer.

Assay [3] concerns TPA-induced skin inflammation. Briefly: TPA-induced skin inflammation in mice, efficacy. The assay is classed as in vivo. The note with it: TPA mouse model; for Ear biopsy weight ID50 (API concentration in formulation) / Ear biopsy weight Imax: topical, CV (%) in brackets. As for the experimental part: Female Balb/c mice of 7 to 8 weeks old were obtained from Charles River, Germany and acclimatized for at least 1 week. Skin inflammation was induced by repeated topical application of TPA (20 μL of 0.01% TPA in acetone; 10 μL to each side of ear) on days 1, 3, 5, 8 and 10.
Treatments were performed by topical application of either vehicle (90% acetone, 10% transcutol), Treatments were applied twice daily on days 8, 9, 10, and once on day 11 (20–10 μL to each side of ear) with at least 5 h between the first and second treatment. TPA challenge on days 8 and 10 was performed at least 1 h after the first treatment. On day 11, animals were sacrificed 2 h after the last dosing. Blood was sampled by cardiac puncture from animals anaesthetized with isoflurane. Thereafter, ear biopsies were taken with a biopsy punch (8 mm diameter), weighed and stored at – 80 °C. Plasma osteocalcin levels were analyzed by EIA (rat-MID, IDS, UK). Effective inhibitory doses (ID50) were determined from a sigmoid I(max) model in Phoenix64, Pharsight, Certara. Therapeutic Index (TI) was calculated either as ID50 for spleen weight reduction or ID50 for blood osteocalcin concentrations, divided by ID50 for ear weight reduction.
RNA was extracted from biopsies and qPCR was performed using TaqMan gene expression assays (Fkbp5-Mm00487406_m1, Tsc22d3 (Gilz)-Mm00726417_s1, Actb-Mm00607939_s1, Pgk1-Mm00435617_m1, Tbp-Mm00446971_m1, Ubc-Mm02525934_g1). Gene expression of Fkbp5 and Tsc22d3 (Gilz) was normalized to the geometric mean of the reference genes Actb, Pgk1, Tbp and Ubc.

As to `CCCCC(=O)O[C@]1(C(=O)CO)[C@@H](C)C[C@H]2[C@@H]3CCC4=CC(=O)C=C[C@]4(C)[C@@]3(F)[C@@H](O)C[C@@]21C` [BMV, Betamethasone Valerate], the “Activation of MR (luciferase activity)” value in assay [1] is on record as “in contrast”. For the same compound, in assay [2] (PBMC, Human PBMCs), the Emax (usually the maximal effect, on the per cent scale that the assay sets) was determined as 79% and the EC50 (in general, the concentration at which the effect is half-maximal) is 3.2 nM. Moreover, the “Potency compared to LEO 134310, TNF-alpha release” value in assay [2] is on record as “equipotent”. For the same compound, in assay [3], the “Ear biopsy weight ID50 (API concentration in formulation)” value (shortened to “Ear biopsy weight ID50”) was 5.1 (73) µg/mL and the “Ear biopsy weight Imax” value is recorded as 69 (17) %.
`C[C@H](NC(=O)[C@H]1CCCO1)[C@H](Oc1ccc(C(=O)O[C@H]2CCCN(C(=O)[C@H]3COC(=O)C3)C2)cc1)c1ccc(C2CC2)cc1` [LEO 134310]: the “Activation of MR (luciferase activity)” value in assay [1] is recorded as “No significant activation of MR”. Moreover, in assay [2] (Human PBMCs), the “Inhibition of LPS-induced TNF-alpha release Emax” value was 77% and the EC50 worked out at 2.3 nM. In addition, in assay [3], the “Less potent than BMV, reduction in ear biopsy weight” value is listed as around 100 fold; the “Less potent than CP, reduction in ear biopsy weight” value is “approximately 300 fold”; the “Ear biopsy weight ID50” value is recorded as 500 (250) µg/mL; the “Ear biopsy weight Imax” value is given as 64 (39) %.
Take `CCC(=O)O[C@]1(C(=O)CCl)[C@@H](C)C[C@H]2[C@@H]3CCC4=CC(=O)C=C[C@]4(C)[C@@]3(F)[C@@H](O)C[C@@]21C` [CP, Clobetasol Propionate]: in assay [1], the “Activation of MR (luciferase activity)” value is recorded as “in contrast”. Also, in assay [2] (PBMC, Human PBMCs), the Emax is 79% and the EC50 is 0.52 nM. For the same compound, the “Potency compared to LEO 134310, TNF-alpha release” value in assay [2] was “fourfold more potent”. Besides, in assay [3], the “Ear biopsy weight ID50” value is given as 1.5 (69) µg/mL and the “Ear biopsy weight Imax” value was 67 (14) %.

For the origin of these results see publication PMC8795149, “Characterization of a novel non-steroidal glucocorticoid receptor agonist optimized for topical treatment” (Scientific Reports, 2022).
